From ChEMBL document CHEMBL1128958, “Synthesis and biological activity of the neuronal calcium channel blocker 2-amino-1-(2,5-dimethoxyphenyl)-5-trifluoromethyl benzimidazole (NS-649)” (Bioorg Med Chem Lett, 1996)
pIC50: −log10 of the molar value.

How the values were obtained:
[1] = organism: Mus musculus; experiment: Concentration that blocked potassium evoked release of [3H]D-aspartate from mouse cerebellar granule neurons; type: functional
[2] = organism: Cavia porcellus; experiment: Effect on [Ca2+]-induced contractions in potassium-depolarized guinea pig taenia coli; type: functional

**Q.** How did the pIC50 [1] turn out when `COc1ccc(OC)c(-n2c(N)nc3cc(C(F)(F)F)ccc32)c1` was run?
**A.** ~5.62

**Q.** What about the Concentration [2] of the same molecule?
**A.** 30 µM
